Laboratory results: US4670461A, “Formaldehyde derivatives of mitindomide” (priority 1984, dated 1987)

Experiments:
L1210 leukemia [1] = assay: S.C. implanted L1210 leukemia in mice (CD2F1); format: in vivo
From the text: ^a Experimental formulation of mitindomide was used (NaOH + manitol).

L1210 leukemia [2] = assay: IP implanted L1210 leukemia in mice (CD2F1); format: in vivo
[3] = system: certain experimental tumor systems; settings: Pettit et al, Can. J. Chem. 61, 2291-2294 (1983); cited from earlier work
[4] = background section; cited from earlier work
[5] = 18.0 mg/kg ip days 1-9, Expt. 1
[6] = 18.0 mg/kg ip days 1-9, Expt. 2
[7] = 30.0 mg/kg ip days 1-9, Expt. 1
[8] = 30.0 mg/kg ip days 1-9, Expt. 2
[9] = 50.0 mg/kg ip days 1-9, Expt. 1
[10] = 50.0 mg/kg ip days 1-9, Expt. 2
[11] = 83.3 mg/kg ip days 1-9, Expt. 1
[12] = 18.0 mg/kg IP days 1-9, Expt. 1
[13] = 18.0 mg/kg IP days 1-9, Expt. 2
[14] = 18.0 mg/kg IP days 1-9, Expt. 3
[15] = 30.0 mg/kg IP days 1-9, Expt. 1
[16] = 30.0 mg/kg IP days 1-9, Expt. 2
[17] = 30.0 mg/kg IP days 1-9, Expt. 3
[18] = 50.0 mg/kg IP days 1-9, Expt. 1
[19] = 50.0 mg/kg IP days 1-9, Expt. 2
[20] = 50.0 mg/kg IP days 1-9, Expt. 3
[21] = 83.3 mg/kg IP days 1-9, Expt. 1
[22] = 83.3 mg/kg IP days 1-9, Expt. 2
[23] = 83.3 mg/kg IP days 1-9, Expt. 3

O=C1NC(=O)[C@H]2[C@H]3C=C[C@@H]([C@@H]12)[C@@H]1[C@H]2C(=O)NC(=O)[C@H]2[C@H]31 [Mitindomide, 4,8-Ethenopyrrolo[3',4':3,4]cyclobut[1,2-f]-isoindole-1,3,5,7(2H,6H) tetrone, octahydro]
ILS (L1210 leukemia [1]; [5]): 21%
MST (L1210 leukemia [1]; [5]): 10.0 days
Wt. Change (L1210 leukemia [1]; [5]): 0.0 g
ILS (L1210 leukemia [1]; [6]): 12%
MST (L1210 leukemia [1]; [6]): 12.0 days
Wt. Change (L1210 leukemia [1]; [6]): -0.1 g
ILS (L1210 leukemia [1]; [7]): 50%
MST (L1210 leukemia [1]; [7]): 12.3 days
Wt. Change (L1210 leukemia [1]; [7]): -3.8 g
ILS (L1210 leukemia [1]; [8]): 42%
MST (L1210 leukemia [1]; [8]): 15.3 days
Wt. Change (L1210 leukemia [1]; [8]): -1.6 g
ILS (L1210 leukemia [1]; [9]): 92%
MST (L1210 leukemia [1]; [9]): 15.8 days
Wt. Change (L1210 leukemia [1]; [9]): -4.3 g
ILS (L1210 leukemia [1]; [10]): 136%
MST (L1210 leukemia [1]; [10]): 25.3 days
Wt. Change (L1210 leukemia [1]; [10]): -4.2 g
ILS (L1210 leukemia [1]; [11]): 6%
MST (L1210 leukemia [1]; [11]): 8.7 days
Wt. Change (L1210 leukemia [1]; [11]): -5.6 g
Wt. Change (L1210 leukemia [1]; 83.3 mg/kg ip days 1-9, Expt. 2): -5.6 g
ILS (L1210 leukemia [2]; [12]): 3%
MST (L1210 leukemia [2]; [12]): 9.0 days
Wt. Change (L1210 leukemia [2]; [12]): 2.3 g
ILS (L1210 leukemia [2]; [13]): 10%
MST (L1210 leukemia [2]; [13]): 8.8 days
Wt. Change (L1210 leukemia [2]; [13]): -0.7 g
ILS (L1210 leukemia [2]; [14]): 13%
MST (L1210 leukemia [2]; [14]): 9.3 days
Wt. Change (L1210 leukemia [2]; [14]): 0.3 g
ILS (L1210 leukemia [2]; [15]): 49%
MST (L1210 leukemia [2]; [15]): 13.0 days
Wt. Change (L1210 leukemia [2]; [15]): 1.2 g
ILS (L1210 leukemia [2]; [16]): 66%
MST (L1210 leukemia [2]; [16]): 13.3 days
Wt. Change (L1210 leukemia [2]; [16]): -3.1 g
ILS (L1210 leukemia [2]; [17]): 86%
MST (L1210 leukemia [2]; [17]): 15.3 days
Wt. Change (L1210 leukemia [2]; [17]): -2.2 g
ILS (L1210 leukemia [2]; [18]): 60%
MST (L1210 leukemia [2]; [18]): 14.0 days
Wt. Change (L1210 leukemia [2]; [18]): 0.2 g
ILS (L1210 leukemia [2]; [19]): 103%
MST (L1210 leukemia [2]; [19]): 16.3 days
Wt. Change (L1210 leukemia [2]; [19]): -3.9 g
ILS (L1210 leukemia [2]; [20]): 156%
MST (L1210 leukemia [2]; [20]): 21.0 days
Wt. Change (L1210 leukemia [2]; [20]): -2.8 g
ILS (L1210 leukemia [2]; [21]): 6%
MST (L1210 leukemia [2]; [21]): 9.3 days
Wt. Change (L1210 leukemia [2]; [21]): -2.5 g
ILS (L1210 leukemia [2]; [22]): 12%
MST (L1210 leukemia [2]; [22]): 9.0 days
Wt. Change (L1210 leukemia [2]; [22]): -5.8 g
ILS (L1210 leukemia [2]; [23]): -3%
MST (L1210 leukemia [2]; [23]): 8.0 days
Wt. Change (L1210 leukemia [2]; [23]): -4.5 g
Wt. Change (L1210 leukemia [2]; 138.9 mg/kg IP days 1-9, Expt. 1): -5.6 g
Wt. Change (L1210 leukemia [2]; 138.9 mg/kg IP days 1-9, Expt. 3): -5.5 g
inhibitory activity against certain experimental tumor systems [3]: strong inhibitory activity
solubility in water [4]: virtually insoluble in water
